Measured values published in patent US20190125753A1, “COMPOUNDS AND METHODS FOR INCREASING HEMATOPOIESIS” (University of Southern California, priority 2016, published 2019).

Tests used:
mouse bone marrow cells = test: 3-day in vitro culture of bone marrow cells, FACS; format: cell-based; conditions: 0.5 μM, 3 days, 200,000 live cells analyzed
Procedure: Mouse bone marrow cells were isolated and cultured in QBSF-58 medium with DMSO or YH250 0.5 μM (medium contains 10 ng/ml of SCF, TPO, Flt3 ligand, and IL-6) for 3 days and cells are recovered and analyzed for HSC surface markers with FACS.

R1 mESCs = test: Maintenance of mouse ES cell pluripotency, feeder free, 5 days; format: cell-based
Procedure: We also determined that IQ-1 indirectly, via binding to the PR72/130 subunit of PP2A, inhibited the p300/β-catenin interaction (Id). Therefore, we anticipated that YH249/250 should also maintain mESC pluripotency in a Wnt dependent manner. To test his, R1 mESCs were cultured under feeder free conditions in the presence or absence of YH249/250 for 5 days. […] Pluripotency markers, Oct4, Nanog, Sox2, SSEA-1 and ALP, were all expressed in the cells treated with Wnt3a and YH250 (FIG. 28b). Moreover, Wnt3a could be replaced with the selective GSK-3 inhibitor CHIR99021, which activates the Wnt signaling pathway (FIG. 28a, lower panel). […] In the event, similarly to ID-8, the combination of Wnt3a and YH249/250 provided morphologically undifferentiated colonies of H9 human embryonic stem cells (hESCs) without FGF and TGF (FIG. 28c). hPSC markers were detected by ALP staining and immunofluorescence (FIG. 28d). In addition to H9 cells, two other hESC lines and a human induced pluripotent stem (iPS) cell line could be also maintained undifferentiated morphology utilizing the same conditions (not shown).
Specifically, FIG. 28A-28D, show maintenance of ESC's pluripotency by YH249 and YH250. […] 28A, Typical colony morphologies of RI mouse ES cells cultured 5 days in [upper panel] 3 μM CHIR99021 and 1 μM PD0325901 (2i) medium, basal medium (2i medium without CHIR99021 and PD0325901), basal medium supplemented with 50 ng/ml Wnt3a alone, [middle panel] combination of 50 ng/ml Wnt3a and 2 μM IQ-1, 500 nM YH249 or 200 nM YH250, [lower panel] 3 μM of CHIR99021 alone, and combination of 3 μM CHIR99021 and 500 nM YH249 or 200 nM YH250. […] The blue signal (Wnt3a panels) represents DAPI nuclear staining. Bars indicate […]. […] The blue signal (Wnt3a panels) represents DAP1 nuclear staining. Scale bars indicate 100 am.

[1] = test system: lethally irradiated animals; test: Survival after lethal dose whole body radiation; format: in vivo, mouse
Procedure: We next tested if YH250 can rescue animals from lethal dose radiation. […] However, YH250 (2 mg/Kg) administrated 24 hours post radiation rescued 50% of animals (Kaplan-Meier analysis p=0.0002).
With 8.5Gy radiation, all the animals (100%) survived in YH250 treatment group while there are only 30% animals survived in DMSO treatment group (p=0.0016, FIG. 21C). […] In principle, to optimize radiation remediation therapy, it should be advantageous to first (a) symmetrically expand the remaining viable stem cell pool (either HSC or ISC), using a method to enhance symmetric non-differentiative proliferation, i.e., by blocking the p300/catenin interaction thereby enhancing CBP/catenin signaling and (b) subsequently induce the differentiation of the stem cell pool via asymmetric divisions to enhance tissue repair and regeneration as rapidly as possible using a CBP/catenin antagonist. We therefore decided to test sequential administration of the p300/catenin antagonist YH250, followed by subsequent administration of the CBP/catenin antagonist ICG-001. An additional potential therapeutic benefit utilizing a CBP/catenin antagonist would be protection against fibrosis, which is a common chronic complication associated with radiation damage. […] We thus treated mice with either vehicle, YH250 (single 2 mg/Kg s.c., injection at 24 h post irradiation), ICG-001 (single 50 mg/Kg s.c., injection at 24 h post irradiation) or the combination of YH250/ICG-001, with YH250 (2 mg/Kg) given 24 h post irradiation followed by ICG-001 (50 mg/Kg) injection for 5 consecutive days starting at 48 h post-irradiation. After irradiation and the corresponding treatments, no special care was provided. The life-span after irradiation was observed on a daily basis and recorded.

COc1cccc(CNC(=O)N2C3CN(Cc4cc(Cl)cc(Cl)c4N(C)C)C(=O)[C@H](Cc4ccc(O)cc4)N3C(=O)CN2C)c1OC (stereo partly shown) [YH250]
LSK 48 − 150+ % (mouse bone marrow cells): 16% | LSK 135 + 34+ % (mouse bone marrow cells): 67% | LSK 135 + 34+ Cell# (mouse bone marrow cells): 4263 | LSK 135 − 34+ % (mouse bone marrow cells): 25% | LSK 135 − 34+ Cell# (mouse bone marrow cells): 1602 | LSK 135 − 34− % (mouse bone marrow cells): 7% | LSK 135 − 34− Cell# (mouse bone marrow cells): 445 | LSK % (mouse bone marrow cells): 16% | LSK Cell# (mouse bone marrow cells): 6340 | Lin-neg % (mouse bone marrow cells): 20% | Lin-neg Cell# (mouse bone marrow cells): 40015 | LSK 48 − 150+ Cell# (mouse bone marrow cells; DMSO 607): 992 | pluripotency markers Oct4, Nanog, Sox2, SSEA-1 and ALP (R1 mESCs; Wnt3a and 200 nM YH250): all expressed | mESC pluripotency (R1 mESCs; with 50 ng/ml Wnt3a or 3 μM CHIR99021, 500 nM YH249 or 200 nM YH250, 5 days): maintain pluripotency | body weight vs DMSO ([1]; 8.5Gy): less body weight drop | animals survived ([1]; 8.5Gy (LD70/60), 2 mg/Kg 24 hours post radiation, DMSO 30%, p=0.0016): 100% | body weight ([1]; 9Gy): less body weight drop | animals rescued (survival) ([1]; 9Gy (LD100/60), 2 mg/Kg 24 hours post radiation, p=0.0002): 50% | life-span after irradiation vs control group ([1]; YH250 2 mg/Kg s.c. 24 h post irradiation, combination followed by ICG-001 50 mg/Kg 5 consecutive days from 48 h): significantly extended life-spans
